5 compounds from ChEMBL document CHEMBL3867482, “Design and synthesis of water soluble β-aminosulfone analogues of SCH 900229 as γ-secretase inhibitors” (Bioorg Med Chem Lett, 2016) can be followed below.

A short description of data set [1]: Ratio of drug level in brain to plasma in mouse at 6 hrs. The data set is classed as ADME, organism-based. As to conditions: brain and plasma, read-out: BPR.
The next data set deals with Cytochrome P450 2C9 (Homo sapiens, UniProt P11712). Nature of the data set: Inhibition of CYP2C9 in human liver microsomes after 30 secs by LC/MS/MS analysis. Type of data set: ADME. In general terms: Microsomes from liver hold many membrane-bound enzymes, among them those of drug oxidation.
Chain of Cytochrome P450 2C9 (P11712 whole entry): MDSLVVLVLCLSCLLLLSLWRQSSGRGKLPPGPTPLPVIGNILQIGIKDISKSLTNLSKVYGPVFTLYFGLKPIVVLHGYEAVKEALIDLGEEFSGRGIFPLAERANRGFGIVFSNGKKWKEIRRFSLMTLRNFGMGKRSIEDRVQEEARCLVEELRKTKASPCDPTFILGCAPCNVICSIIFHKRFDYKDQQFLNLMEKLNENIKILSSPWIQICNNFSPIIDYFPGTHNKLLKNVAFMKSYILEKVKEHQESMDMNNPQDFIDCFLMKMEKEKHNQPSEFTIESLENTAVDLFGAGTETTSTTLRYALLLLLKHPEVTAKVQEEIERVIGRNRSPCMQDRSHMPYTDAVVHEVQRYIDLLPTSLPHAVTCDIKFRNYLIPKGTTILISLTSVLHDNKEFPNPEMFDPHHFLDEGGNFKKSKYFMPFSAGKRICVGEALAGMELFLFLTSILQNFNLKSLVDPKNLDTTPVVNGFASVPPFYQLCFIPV
Data set [2] in a line: AUC (0 to 6 hrs) in mouse at 10 mg/kg, po by LC/MS/MS analysis. Also on record: time < 6 hr, dose 10 mg/kg, route oral. The data set is classed as ADME, organism-based. Particulars: in vivo.
Data set [3] concerns the target T1, Cytochrome P450 3A4 (Homo sapiens, UniProt P08684). In words: Inhibition of CYP3A4 in human liver microsomes preincubated for 30 mins after 30 secs by LC/MS/MS analysis. Type of data set: ADME.
In data set [4] the test system is Mus musculus. Nature of the data set: Antialzheimer activity in B6C3F1 mouse assessed as amyloid beta 40 level in cortex at 10 mg/kg, po administered as single dose after 3 hrs relative to control. Type of data set: functional.
Data set [5] in a line: Clearance in rat hepatocytes assessed per million cells by HPLC/atmospheric pressure chemical ionization/MS analysis. Type of data set: ADME, cell-based, Hepatocyte. Particulars: read-out: CLH.
Data set [6] is described as follows: Clearance in monkey hepatocytes assessed per million cells by HPLC/atmospheric pressure chemical ionization/MS analysis. Type of data set: ADME, cell-based, Macaca mulatta, Hepatocyte. As to conditions: rhesus monkey, read-out: CLH.
The nature of data set [7]: Inhibition of gamma-secretase in HEK293 cell membranes expressing human APP Swedish/London double mutant assessed as reduction in amyloid beta 40 formation after 1 hr by electrochemiluminescence based immunoassay.
Data set [8] deals with Mus musculus. Nature of the data set: Antialzheimer activity in B6C3F1 mouse assessed as amyloid beta 40 level in plasma at 10 mg/kg, po administered as single dose after 3 hrs relative to control. The data set is classed as functional.
The next data set has as its target Cytochrome P450 2D6 (Homo sapiens, UniProt P10635). Nature of the data set: Inhibition of CYP2D6 in human liver microsomes after 30 secs by LC/MS/MS analysis. The data set is classed as ADME.
Data set [9] has as its target T1, Cytochrome P450 3A4. In words: Inhibition of CYP3A4 in human liver microsomes after 30 secs by LC/MS/MS analysis. Type of data set: ADME.
Data set [10] can be described thus: Clearance in human hepatocytes assessed per million cells by HPLC/atmospheric pressure chemical ionization/MS analysis. The data set is classed as ADME, cell-based, Hepatocyte. Particulars: read-out: CLH.
The nature of data set [11]: Clearance in dog hepatocytes assessed per million cells by HPLC/atmospheric pressure chemical ionization/MS analysis. The data set is classed as ADME, cell-based, Canis lupus familiaris, Hepatocyte. Particulars: read-out: CLH.
Data set [12] has as its system Mus musculus. Nature of the data set: Antialzheimer activity in B6C3F1 mouse assessed as reduction in amyloid beta 40 levels in plasma at 30 mg/kg, po after 6 hrs. Type of data set: functional. Also on record: scale not given: the % may be the effect or the level left.
Data set [13] can be described thus: Dissociation constant, pKa of the compound. The data set is classed as physicochemical.
Data set [14] concerns Mus musculus. Nature of the data set: Antialzheimer activity in B6C3F1 mouse assessed as reduction in amyloid beta 40 levels in cortex at 30 mg/kg, po after 24 hrs. Type of data set: functional. Also on record: scale not given: the % may be the effect or the level left.
For data set [15], the target named is T2, hERG (KCNH2) (Homo sapiens, UniProt Q12809). In words: Inhibition of human ERG at 10 uM by thallium flux assay.
T2 sequence (Q12809 whole entry): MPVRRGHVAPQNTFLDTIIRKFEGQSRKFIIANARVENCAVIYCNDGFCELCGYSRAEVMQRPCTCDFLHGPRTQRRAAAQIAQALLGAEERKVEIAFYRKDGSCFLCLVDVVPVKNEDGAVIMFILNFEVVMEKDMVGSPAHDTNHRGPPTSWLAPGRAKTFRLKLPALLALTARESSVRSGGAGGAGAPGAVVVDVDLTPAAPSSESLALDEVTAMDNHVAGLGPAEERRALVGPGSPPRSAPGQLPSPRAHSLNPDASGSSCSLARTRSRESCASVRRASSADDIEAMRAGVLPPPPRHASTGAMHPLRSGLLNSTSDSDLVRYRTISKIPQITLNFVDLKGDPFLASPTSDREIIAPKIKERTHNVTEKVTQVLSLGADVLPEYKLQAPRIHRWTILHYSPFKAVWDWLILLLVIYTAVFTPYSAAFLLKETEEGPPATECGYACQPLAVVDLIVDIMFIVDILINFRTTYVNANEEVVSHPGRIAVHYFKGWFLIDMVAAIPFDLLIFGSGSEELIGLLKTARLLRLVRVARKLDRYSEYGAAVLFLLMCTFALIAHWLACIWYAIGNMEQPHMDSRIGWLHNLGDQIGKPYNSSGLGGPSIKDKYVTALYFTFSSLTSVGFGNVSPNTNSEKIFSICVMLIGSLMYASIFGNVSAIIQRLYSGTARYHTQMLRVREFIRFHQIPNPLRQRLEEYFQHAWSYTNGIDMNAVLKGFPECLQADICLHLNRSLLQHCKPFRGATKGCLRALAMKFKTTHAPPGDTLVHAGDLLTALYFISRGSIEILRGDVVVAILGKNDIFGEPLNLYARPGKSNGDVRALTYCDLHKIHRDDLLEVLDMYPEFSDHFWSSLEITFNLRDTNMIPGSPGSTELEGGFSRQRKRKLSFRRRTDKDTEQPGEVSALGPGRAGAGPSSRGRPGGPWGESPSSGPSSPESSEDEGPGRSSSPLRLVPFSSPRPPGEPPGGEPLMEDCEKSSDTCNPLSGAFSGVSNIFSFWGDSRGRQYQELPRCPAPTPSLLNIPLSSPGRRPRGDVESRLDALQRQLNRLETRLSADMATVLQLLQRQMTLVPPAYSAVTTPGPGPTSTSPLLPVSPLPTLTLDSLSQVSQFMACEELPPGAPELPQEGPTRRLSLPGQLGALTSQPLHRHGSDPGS
Data set [16] relates to Mus musculus. In words: Antialzheimer activity in B6C3F1 mouse assessed as reduction in amyloid beta 40 levels in plasma at 30 mg/kg, po after 12 hrs. Type of data set: functional. Also on record: scale not given: the % may be the effect or the level left.
Data set [17] in a line: Drug metabolism in rat assessed as N-demethylation. The data set is classed as ADME.
The nature of data set [18]: Drug metabolism in rat assessed as beta-elemination. The data set is classed as ADME.
Data set [19] relates to Mus musculus. Nature of the data set: Antialzheimer activity in B6C3F1 mouse assessed as amyloid beta 40 levels in plasma at 30 mg/kg, po after 24 hrs. Type of data set: functional.
The test system of data set [20] is Mus musculus. Nature of the data set: Antialzheimer activity in B6C3F1 mouse assessed as reduction in amyloid beta 40 levels in cortex at 30 mg/kg, po after 6 hrs. Type of data set: functional. Also on record: scale not given: the % may be the effect or the level left.
In data set [21] the test system is Mus musculus. In words: Antialzheimer activity in B6C3F1 mouse assessed as reduction in amyloid beta 40 levels in cortex at 30 mg/kg, po after 12 hrs. Type of data set: functional. Also on record: scale not given: the % may be the effect or the level left.
The target in data set [22] is T2, hERG (KCNH2). In words: Inhibition of human ERG at 1 uM by Thallium flux assay.
Data set [23] in a line: Kinetic solubility of compound. Type of data set: physicochemical. As to conditions: read-out: Kinetic_solubility.

T1 sequence (P08684 whole entry): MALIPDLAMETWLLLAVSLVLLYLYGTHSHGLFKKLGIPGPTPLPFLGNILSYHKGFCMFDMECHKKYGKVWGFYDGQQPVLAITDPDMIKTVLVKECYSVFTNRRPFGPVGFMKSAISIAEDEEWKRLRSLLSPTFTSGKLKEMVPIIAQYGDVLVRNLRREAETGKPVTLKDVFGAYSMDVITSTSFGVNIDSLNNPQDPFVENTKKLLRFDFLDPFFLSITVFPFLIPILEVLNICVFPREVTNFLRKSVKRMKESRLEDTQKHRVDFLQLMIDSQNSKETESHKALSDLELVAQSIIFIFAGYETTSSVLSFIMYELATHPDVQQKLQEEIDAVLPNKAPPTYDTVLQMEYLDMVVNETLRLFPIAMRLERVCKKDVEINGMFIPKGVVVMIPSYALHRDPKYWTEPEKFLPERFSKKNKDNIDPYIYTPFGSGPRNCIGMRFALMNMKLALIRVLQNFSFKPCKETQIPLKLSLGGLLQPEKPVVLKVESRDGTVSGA
Chain of Cytochrome P450 2D6 (P10635 whole entry): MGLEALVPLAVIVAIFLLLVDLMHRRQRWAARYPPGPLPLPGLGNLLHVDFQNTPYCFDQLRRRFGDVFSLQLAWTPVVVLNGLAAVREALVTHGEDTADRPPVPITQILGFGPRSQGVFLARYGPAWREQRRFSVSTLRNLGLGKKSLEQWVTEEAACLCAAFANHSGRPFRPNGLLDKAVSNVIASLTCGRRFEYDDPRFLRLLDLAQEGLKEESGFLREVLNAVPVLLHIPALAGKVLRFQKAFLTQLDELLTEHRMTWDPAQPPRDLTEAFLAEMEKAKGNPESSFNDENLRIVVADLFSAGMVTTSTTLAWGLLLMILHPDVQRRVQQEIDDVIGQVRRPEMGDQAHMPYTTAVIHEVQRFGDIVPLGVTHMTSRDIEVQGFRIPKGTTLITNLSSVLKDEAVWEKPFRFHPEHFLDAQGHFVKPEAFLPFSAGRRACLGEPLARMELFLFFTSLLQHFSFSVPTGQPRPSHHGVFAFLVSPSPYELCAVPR

Consider `O=S(=O)(CC[C@@H]1OCC[C@@]2(S(=O)(=O)c3ccc(Cl)cc3)c3c(F)ccc(F)c3OC[C@@H]12)[C@@H]1CCNC1`, for which the Kp at 6 h in data set [1] is 2. Also, the IC50 against Cytochrome P450 2C9 was greater than 20 µM; on Cytochrome P450 3A4 [3], 3.7 µM; in [7], 0.0051 µM; at Cytochrome P450 2D6, greater than 20 µM; against Cytochrome P450 3A4 [9] it was 6.1 µM. The compound also had an AUC(0-t) at 6 h in data set [2] of 1.17 µM·h. For the same compound, the Activity in the data set with Mus musculus [4] was -73%; in the data set on Mus musculus [8] it was -90%. Besides, the hepatocyte CLint came to 13.9 µL/min/1e6 cells in data set [5], 38.8 µL/min/1e6 cells in [6], 14.5 µL/min/1e6 cells in data set [10] and 17.9 µL/min/1e6 cells in data set [11].
As for `O=S(=O)(CC[C@@H]1OCC[C@@]2(S(=O)(=O)c3ccc(Cl)cc3)c3c(F)ccc(F)c3OC[C@@H]12)[C@H]1CCNC1`, the Kp at 6 h in data set [1] turned out to be 0.3. Besides, the IC50 at Cytochrome P450 2C9 was greater than 20 µM; on Cytochrome P450 3A4 [3], 1 µM; in [7], 0.0014 µM; against Cytochrome P450 2D6 it was greater than 20 µM; against Cytochrome P450 3A4 [9], 2 µM. In data set [2], this compound came in with an AUC(0-t) at 6 h of 1.02 µM·h. Moreover, the Activity with Mus musculus [4] was -56%; with Mus musculus [8] it was -82%. Besides, the hepatocyte CLint is 18.9 µL/min/1e6 cells in data set [5], 60.5 µL/min/1e6 cells in [6], 34.2 µL/min/1e6 cells in [10] and 21.1 µL/min/1e6 cells in [11].
As to `O=S(=O)(CC[C@@H]1OCC[C@@]2(S(=O)(=O)c3ccc(Cl)cc3)c3c(F)ccc(F)c3OC[C@@H]12)C[C@@H]1CCCN1`, in data set [1], the Kp at 6 h worked out at 0.6. In addition, the IC50 is greater than 20 µM at Cytochrome P450 2C9; 1 µM on Cytochrome P450 3A4 [3]; 0.0007 µM in data set [7]; greater than 20 µM at Cytochrome P450 2D6; greater than 20 µM against Cytochrome P450 3A4 [9]. This compound came in with an AUC(0-t) at 6 h in data set [2] of 0.674 µM·h. The Activity is -48% in the data set with Mus musculus [4] and -57% in the data set with Mus musculus [8]. Further, the hepatocyte CLint in data set [5] is 15.2 µL/min/1e6 cells; in data set [6] it was 26.7 µL/min/1e6 cells; in data set [10] it was 5.6 µL/min/1e6 cells; in data set [11], 12.5 µL/min/1e6 cells.
For `CNCCS(=O)(=O)CC[C@@H]1OCC[C@@]2(S(=O)(=O)c3ccc(Cl)cc3)c3c(F)ccc(F)c3OC[C@@H]12`, the Activity in the data set on Mus musculus [12] is 93%; with Mus musculus [14], 37%; in the data set with Mus musculus [4], -61%; in the data set with Mus musculus [16], 35%; in the data set on Mus musculus [8], -44%; in the data set with Mus musculus [19], 50%. In addition, the Activity in the data set with Mus musculus [20] worked out at 73%; in the data set on Mus musculus [21], 66%. Also, the Kp at 6 h in [1] came to 0.4. In data set [13], the pKa amounted to 7.7. Also, the IC50 at Cytochrome P450 2C9 is greater than 20 µM; on Cytochrome P450 3A4 [3], 8.4 µM; in [7] it was 0.0041 µM; against Cytochrome P450 2D6 it was greater than 20 µM; at Cytochrome P450 3A4 [9], greater than 20 µM. The compound also registered an AUC(0-t) at 6 h in [2] of 0.532 µM·h. Moreover, on hERG (KCNH2) [15], at 10 µM the inhibition was 21%. In addition, the hepatocyte CLint was 22.3 µL/min/1e6 cells in [5], 40.5 µL/min/1e6 cells in data set [6], 17.3 µL/min/1e6 cells in data set [10] and 11.5 µL/min/1e6 cells in data set [11]. In addition, the Drug metabolism result in data set [17] and in data set [18] was “Metabolite_Notdetected” each time. This compound had an inhibition at 1 µM against hERG (KCNH2) [22] of 1%.
For the compound `CNC(C)(C)CCS(=O)(=O)CC[C@@H]1OCC[C@@]2(S(=O)(=O)c3ccc(Cl)cc3)c3c(F)ccc(F)c3OC[C@@H]12`, the Kp at 6 h in [1] turned out to be 1. Also, the IC50 against Cytochrome P450 2C9 was greater than 20 µM; at Cytochrome P450 3A4 [3], greater than 20 µM; in [7], 0.0022 µM; on Cytochrome P450 2D6, greater than 20 µM; against Cytochrome P450 3A4 [9], greater than 20 µM. This compound also yielded an AUC(0-t) at 6 h in data set [2] of 0.477 µM·h. The results for the Activity in the data set with Mus musculus [4] and with Mus musculus [8] were -33% and -51%, respectively. For the same compound, the solubility kinetic in data set [23] was greater than 20 µM. Further, the hepatocyte CLint in [5] turned out to be 25.8 µL/min/1e6 cells; in data set [6], 55.1 µL/min/1e6 cells; in [10], 20.4 µL/min/1e6 cells; in data set [11], 23.5 µL/min/1e6 cells.

Usually IC50 stands for the midpoint of a concentration-inhibition curve. Usually AUC(0-t) stands for the area under the concentration-time curve up to a stated or last time point. In general, pKa refers to the negative logarithm of the acid dissociation constant. As usually defined, the inhibition is the share of the control response that was lost under treatment.
